Test results: ChEMBL document CHEMBL1201862, “PubChem BioAssay data set” (2004)
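Grown in 96-well plates, cells were treated for 48 hours with each compound at five concentrations. Insufficient inhibition: endpoint recorded as highest concentration tested. GI50 = concentration required for 50% inhibition of growth.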 The source made the active and inactive calls. Rule as the data show it: active = GI50 up to about 1.1 µM and inactive = higher.

Experiments:
Assay in all cases: NCI tumour cell line growth inhibition, 48 h
786-0 = system: 786-0
A498 = system: A498
A549 = system: A549
ACHN = system: ACHN
CAKI-1 = system: CAKI-1
CCRF-CEM = system: CCRF-CEM
COLO 205 = system: COLO 205
DLD-1 = system: DLD-1
DMS-114 = system: DMS-114
DMS-273 = system: DMS-273
EKVX = system: EKVX
HCC 2998 = system: HCC 2998
HCT-116 = system: HCT-116
HCT-15 = system: HCT-15
HL-60 = system: HL-60
HOP-18 = system: HOP-18
HOP-62 = system: HOP-62
HOP-92 = system: HOP-92
HT-29 = system: HT-29
IGROV-1 = system: IGROV-1
K562 = system: K562
KM-20L2 = system: KM-20L2
KM12 = system: KM12
LOX IMVI = system: LOX IMVI
LXFL 529 = system: LXFL 529
M14 = system: M14
M19-MEL = system: M19-MEL
MOLT-4 = system: MOLT-4
Malme-3M = system: Malme-3M
NCI-H226 = system: NCI-H226
NCI-H23 = system: NCI-H23
NCI-H460 = system: NCI-H460
NCI-H522 = system: NCI-H522
OVCAR-3 = system: OVCAR-3
OVCAR-4 = system: OVCAR-4
OVCAR-5 = system: OVCAR-5
OVCAR-8 = system: OVCAR-8
RPMI-8226 = system: RPMI-8226
RXF 393 = system: RXF 393
RXF 631 = system: RXF 631
SF-268 = system: SF-268
SF-295 = system: SF-295
SF-539 = system: SF-539
SK-MEL-28 = system: SK-MEL-28
SK-MEL-2 = system: SK-MEL-2
SK-MEL-5 = system: SK-MEL-5
SK-OV-3 = system: SK-OV-3
SN12C = system: SN12C
SNB-19 = system: SNB-19
SNB-75 = system: SNB-75
SNB-78 = system: SNB-78
SW-620 = system: SW-620
TK-10 = system: TK-10
U-251 = system: U-251
UACC-257 = system: UACC-257
UACC-62 = system: UACC-62
UO-31 = system: UO-31
SR = system: SR
XF498 = system: XF498

CC1S(=O)(=O)OCCOS1(=O)=O
GI50 (786-0): 46.2 µM (inactive)
GI50 (A498): > 100 µM (inactive)
GI50 (A549): > 95.5 µM (inactive)
GI50 (ACHN): 46.5 µM (inactive)
GI50 (CAKI-1): 53.3 µM (inactive)
GI50 (CCRF-CEM): 50 µM (inactive)
GI50 (COLO 205): > 100 µM (inactive)
GI50 (DLD-1): > 100 µM (inactive)
GI50 (DMS-114): 39.2 µM (inactive)
GI50 (DMS-273): 60 µM (inactive)
GI50 (EKVX): > 100 µM (inactive)
GI50 (HCC 2998): > 100 µM (inactive)
GI50 (HCT-116): > 95.7 µM (inactive)
GI50 (HCT-15): > 100 µM
GI50 (HL-60): 29.7 µM (inactive)
GI50 (HOP-18): > 100 µM (inactive)
GI50 (HOP-62): > 100 µM (inactive)
GI50 (HOP-92): > 100 µM (inactive)
GI50 (HT-29): > 100 µM (inactive)
GI50 (IGROV-1): > 100 µM (inactive)
GI50 (K562): > 100 µM (inactive)
GI50 (KM-20L2): > 100 µM (inactive)
GI50 (KM12): > 100 µM (inactive)
GI50 (LOX IMVI): 52.2 µM (inactive)
GI50 (LXFL 529): > 100 µM (inactive)
GI50 (M14): > 100 µM (inactive)
GI50 (M19-MEL): > 100 µM (inactive)
GI50 (MOLT-4): 18 µM (inactive)
GI50 (Malme-3M): > 100 µM (inactive)
GI50 (NCI-H226): > 100 µM (inactive)
GI50 (NCI-H23): > 76.9 µM (inactive)
GI50 (NCI-H460): 31.7 µM (inactive)
GI50 (NCI-H522): > 78 µM (inactive)
GI50 (OVCAR-3): 74 µM (inactive)
GI50 (OVCAR-4): > 100 µM (inactive)
GI50 (OVCAR-5): > 100 µM (inactive)
GI50 (OVCAR-8): > 100 µM (inactive)
GI50 (RPMI-8226): > 100 µM (inactive)
GI50 (RXF 393): > 73.5 µM (inactive)
GI50 (RXF 631): 31.7 µM (inactive)
GI50 (SF-268): 32.1 µM (inactive)
GI50 (SF-295): 50.4 µM (inactive)
GI50 (SF-539): 46.6 µM (inactive)
GI50 (SK-MEL-28): > 100 µM (inactive)
GI50 (SK-MEL-2): > 100 µM (inactive)
GI50 (SK-MEL-5): 50.1 µM (inactive)
GI50 (SK-OV-3): > 100 µM (inactive)
GI50 (SN12C): 77.4 µM (inactive)
GI50 (SNB-19): 39.7 µM (inactive)
GI50 (SNB-75): 67.9 µM (inactive)
GI50 (SNB-78): > 100 µM (inactive)
GI50 (SW-620): > 100 µM (inactive)
GI50 (TK-10): > 100 µM (inactive)
GI50 (U-251): 28.8 µM (inactive)
GI50 (UACC-257): > 94.2 µM (inactive)
GI50 (UACC-62): 22.6 µM (inactive)
GI50 (UO-31): > 100 µM (inactive)

O=C1c2ccccc2C(Br)(Br)c2ccccc21
GI50 (786-0): > 31.6 µM (inactive)
GI50 (A498): > 10 µM (inactive)
GI50 (A549): > 31.6 µM (inactive)
GI50 (ACHN): > 31.6 µM (inactive)
GI50 (CAKI-1): > 10 µM (inactive)
GI50 (CCRF-CEM): > 31.6 µM (inactive)
GI50 (COLO 205): > 31.6 µM (inactive)
GI50 (DLD-1): > 31.6 µM (inactive)
GI50 (DMS-114): > 31.6 µM (inactive)
GI50 (DMS-273): > 31.6 µM (inactive)
GI50 (EKVX): > 100 µM (inactive)
GI50 (HCC 2998): > 31.6 µM (inactive)
GI50 (HCT-116): > 31.6 µM (inactive)
GI50 (HCT-15): > 31.6 µM
GI50 (HL-60): > 31.6 µM (inactive)
GI50 (HOP-18): > 31.6 µM (inactive)
GI50 (HOP-62): > 10 µM (inactive)
GI50 (HOP-92): > 100 µM (inactive)
GI50 (HT-29): > 100 µM (inactive)
GI50 (IGROV-1): > 31.6 µM (inactive)
GI50 (K562): > 31.6 µM (inactive)
GI50 (KM-20L2): > 100 µM (inactive)
GI50 (KM12): > 100 µM (inactive)
GI50 (LOX IMVI): > 31.6 µM (inactive)
GI50 (LXFL 529): > 31.6 µM (inactive)
GI50 (M14): > 31.6 µM (inactive)
GI50 (M19-MEL): > 31.6 µM (inactive)
GI50 (MOLT-4): > 31.6 µM (inactive)
GI50 (Malme-3M): > 31.6 µM (inactive)
GI50 (NCI-H226): > 31.6 µM (inactive)
GI50 (NCI-H23): > 100 µM (inactive)
GI50 (NCI-H460): > 31.6 µM (inactive)
GI50 (NCI-H522): 25.4 µM (inactive)
GI50 (OVCAR-3): > 31.6 µM (inactive)
GI50 (OVCAR-4): 1.16 µM (inactive)
GI50 (OVCAR-5): > 31.6 µM (inactive)
GI50 (OVCAR-8): > 100 µM (inactive)
GI50 (RPMI-8226): > 10 µM (inactive)
GI50 (RXF 393): 18.2 µM (inactive)
GI50 (SF-268): 25.5 µM (inactive)
GI50 (SF-295): > 31.6 µM (inactive)
GI50 (SF-539): 57.8 µM (inactive)
GI50 (SK-MEL-28): > 31.6 µM (inactive)
GI50 (SK-MEL-2): > 31.6 µM (inactive)
GI50 (SK-MEL-5): > 31.6 µM (inactive)
GI50 (SK-OV-3): > 31.6 µM (inactive)
GI50 (SN12C): > 31.6 µM (inactive)
GI50 (SNB-19): > 31.6 µM (inactive)
GI50 (SNB-75): 14.9 µM (inactive)
GI50 (SNB-78): > 100 µM (inactive)
GI50 (SR): > 31.6 µM (inactive)
GI50 (SW-620): > 31.6 µM (inactive)
GI50 (TK-10): > 100 µM (inactive)
GI50 (U-251): > 31.6 µM (inactive)
GI50 (UACC-257): > 100 µM (inactive)
GI50 (UACC-62): > 100 µM (inactive)
GI50 (UO-31): > 31.6 µM (inactive)
GI50 (XF498): 29.3 µM (inactive)
